Laboratory results taken from US20090017486A1, “METHOD AND TEST KIT FOR THE IDENTIFICATION OF COMPOUNDS SPECIFICALLY MODULATING THE ACTION OF CORTICAL AXO-AXONIC CELLS” (priority 2005, published 2009).
Entries after “also recorded” stand apart in the source; their conditions may differ.

Experiments:
[1] = tested on: pyramidal cell (soma and axon initial segment); test: Pressure application of GABA to soma and axon initial segment of pyramidal cells; type: cell-based, rat
Experimental: (§1) For perforated patch experiments, 3 mg/ml gramicidin (Sigma) was used, dissolved in DMSO and diluted to a final concentration of 9 μg/ml in the low [Cl^−]in pipette solution. […] Membrane potentials were corrected for junction potentials. […] Pressure waves (˜5 μm in diameter) and pipette positions on the soma and along the axon initial segment (30-40 μm from the soma) were imaged and the postsynaptic cell membrane was ruptured by gentle suction pulses to allow biocytin labelling and post-hoc comparison of pipette positions with light microscopic reconstructions. Cells were excluded from analysis if basal dendrites were closer than ˜30 μm to the pressure pipette and/or initial segment.
To characterize the interaction of axo-axonic cells (AACs) and their postsynaptic neurons, first the reversal potential of GABAergic inputs arriving to the perisomatic region of pyramidal cells was determined, elicited by AACs and basket cells in layers 2/3 of rat somatosensory cortex in vitro (FIG. 1). Paired recordings of presynaptic interneurons and postsynaptic pyramidal cells were performed using the gramicidin perforated patch placed onto the axon hillock between the soma and the initial segment. […] AACs were identified based on light microscopic reconstructions and analysis showing axonal candles or cartridges specific to this cell type [Szentagothai and Arbib (1974); Somogyi (1977)]

[2] = tested on: axo-axonic cells (AACs) and postsynaptic neurons, layer 2/3 somatosensory cortex slices; test: Multiple whole-cell recordings of synaptic event sequences triggered by AACs in rat cortical slices; type: cell-based
Experimental: as §1

human axo-axonic cell = conditions: gabazine 20 μM
Experimental: Anaesthesia was induced with intravenous midazolam and fentanyl (0.03 mg/kg and 1-2 μg/kg, respectively). A bolus dose of propofol (1-2 mg/kg) was administered intravenously. To facilitate endotracheal intubation, the patient recieved 0.5 mg/kg rocuronium. After 120 seconds, the trachea was intubated and the patient was ventilated with a mixture of O2—N2O at a ratio of 1:2. Anaesthesia was maintained with sevoflurane at MAC volume of 1.2-1.5. Slices were incubated at room temperature for 1 hour in a solution composed of 130 mM NaCl, 3.5 mM KCl, 1 mM NaH2PO4, 24 mM NaHCO3, 1 mM CaCl2, 3 mM MgSO4 and 10 mM D(+)-glucose, saturated with 95% O2 and 5% CO2. The solution used during recordings differed only in that it contained 3 mM CaCl2 and 1.5 mM MgSO4. Recordings were obtained at ˜35° C. from up to four concomitantly recorded cells visualized in layer 2/3 by infrared differential interference contrast videomicroscopy (Olympus BX60WI microscope, Hamamatsu CCD camera, Luigs & Neumann Infrapatch set-up and two HEKA EPC 10/double patch-clamp amplifiers). Signals were filtered at 8 kHz, digitized at 16 kHz and analyzed with PULSE software (HEKA). Micropipettes (5-7 MW) were filled with three types of solutions. […] Access resistance was continuously monitored throughout perforated patch experiments to check membrane rupture. […]

[3] = gabazine 20 μM, low [Cl−]in, reversible on washout

**Q.** For `NCCCC(=O)O` [GABA, gamma-aminobutyric acid], which “reversal potential of GABA response, soma” value ([1]; GABA 1 mM pressure application to soma, perforated patch, n=7) is on record?
**A.** The value was −71.2±2.7 mV.

**Q.** What about the “trials with spikes triggered below somatic threshold potential” value ([1]; GABA to axon initial segment, high [Cl−]in, whole cell mode, n=4 cells) of the same compound?
**A.** Its value is 7±3 % of trials.

**Q.** What about the “threshold potential of spikes triggered by GABA applied to axon initial segment” value ([1]; high [Cl−]in intracellular solution, whole cell mode, n=4 cells) of the same compound?
**A.** The value was −64.2±2.8 mV.

**Q.** What about the “triggering short latency spikes from hyperpolarized membrane potentials” value ([1]; pressure application of GABA to axon initial segment, high [Cl−]in) of the same compound?
**A.** Its value is “not effective”.

**Q.** With `NS(=O)(=O)c1cccc2c1c([N+](=O)[O-])cc1nc(O)c(O)nc12` [NBQX] as the compound, how does the “effect on unitary IPSP” value ([2]; NBQX 10 μM) read?
**A.** The value was “no effect”.

**Q.** What about the “effect on disynaptic EPSPs triggered by AACs” value ([2]; NBQX 10 μM, recovery upon washout) of the same compound?
**A.** Its value is “blocked; also recorded: reversibly eliminated”.

**Q.** Which results are given for `COc1ccc(-c2ccc(=N)n(CCCC(=O)O)n2)cc1` [gabazine]?
**A.** effect on disynaptic EPSPs triggered by AACs [2, 3]: blocked; effect on monosynaptic (unitary) IPSPs [2, 3]: blocked; effect on disynaptic EPSPs and downstream spikes (human axo-axonic cell): blocked
